≈ marks a conversion by molar mass, not a printed value. Residues, ends and D or L forms follow the SMILES beside them. *: point of attachment. Palmitoyl = CCCCCCCCCCCCCCCC(=O)*
Legend:
[1] = Kinetic solubility of potassium salt Compound I-2 (further research); type: physicochemical; settings: water; 25° C.
[2] = system: inflammatory bowel diseases, multiple sclerosis, and septicemia; settings: shown in U.S. application Ser. No. 15/205,853; cited from earlier work
[3] = Water solubility of Compound I-1-Acid (further investigation); type: physicochemical
[4] = Approximate solubility of Compound I-1-Acid in different solvents (manual dilution, visual observation); type: physicochemical
Protocol: The solubility test was conducted by manual dilution combined with visual observation. As shown below, Compound I-1-Acid has poor solubility (<1 mg/mL) in most organic solvents and water (Table 1).

[5] = Aqueous solubility of Compound I-1 in the presence of excipients; type: physicochemical; settings: 25° C.
Protocol: Specifically, about 50 mg of Compound I-1 was weighed into a 1.5-mL HPLC vial, and 0.2 mL of different media was then added to each vial. The mixtures were shaken at 25° C. under 700 rpm. After 24 hours of shaking, the slurries were centrifuged twice and analyzed. The supernatant was analyzed by HPLC.

[6] = as above; type: physicochemical; settings: approximate solubility by visual observation
[7] = Stabilities of amorphous Compound I-1 (ICH guideline, XRPD); type: physicochemical; settings: amorphous; 25±2° C./60±5% RH and 40±2° C./75±5% RH; ICH guideline
Protocol: Stabilities of amorphous Compound I-1 were also conducted according to ICH guideline.

[8] = Physical stability of Compound I-1 in meglumine solutions; type: physicochemical; settings: for Appearance: precipitation after (storage time) / Appearance: no precipitation until (storage time): vehicle Meglumine, 25° C.
Protocol: In contrast, an aqueous formulation with a concentration of Compound I-1 of 200 mg/mL, without meglumine, started forming precipitates after storing 1 day at 25° C.

[9] = system: DSS induced colitis animal model; test: DSS induced colitis animal model; type: in vivo; settings: formulations containing Compound I-1
Source text: The compound of Formula I (e.g., Formula I-B or I-C, or any one of Compounds I-1 to I-10) described herein is useful for treating various diseases or disorders discussed herein. […] In addition, it was shown that effective concentration of the acid compounds can be retained in a targeted tissue (e.g., small intestinal tissues, large intestinal tissues, appendix tissues) for a sufficient time. […] Those skilled in the art would expect that the salts of Compound I-1-Acid, such as Compound I-1, be similarly efficacious.

[10] = Solubility of amorphous, Form A and Form E of Compound I-1 in water (shaken at 25° C., HPLC); type: physicochemical; settings: for Final pH: mother liquor; for XRPD pattern (wet): residue of the suspension in water
Protocol: The solubility of amorphous, Form A or E of Compound I-1 in water was further studied. Specifically, about 250 mg Compound I-1 in amorphous, Forms A and E were each suspended in a 2 mL HPLC vial with 0.9 mL of water. Each suspension was then shaken at 25° C. under 1000 rpm. The suspensions were analyzed at 1 h and 24 h. In particular, at either the 1 h or 24 h time point, the slurries were centrifuged and analyzed by HPLC. The pH values of the mother liquors were measured, and the residues were characterized by XRPD.

[11] = Hygroscopicity by Dynamic Vapor Sorption (DVS); type: physicochemical
Protocol: A polymorph screening study on Compound I-1-Acid was also carried out, which identified Form 1. […] About 0.25% weight loss from 25° C. to 120° C. and about 0.42% weight loss from 120° C. to 150° C.
Compound I-2 can have different crystalline forms. Two different polymorphs, Forms A2 and B2 were identified. Form A2 can be prepared as follows. Specifically, the white solid of Compound I-2 obtained above was dissolved in 30 mL THF:water (95:5, v/v). […] The suspension was then allowed to be stirred at room temperature overnight. After which, the solid was filtered, washed with THF:water:MTBE=7.5:1:53 (25 mL*3) to remove excess KOH, and then dried under vacuum at 25° C. overnight to provide Form A2.

[12] = Crystalline stability of Form A2 of Compound I-2 on storage; type: physicochemical; settings: 25° C./92.5% RH, 40° C./75% RH, 60° C.; 25 days
[13] = Approximate solubility of Compound I-2 (amorphous) at room temperature; type: physicochemical
Protocol: The solubility of Compound I-2 (amorphous) at room temperature was tested using a method similar to those described in Examples 4 and 5. The solubility test results are described in Table 6.

[14] = water, 25° C., time point 1 hour
[15] = water, 25° C., time point 24 hours

CCCCCCCCCCCCCCCC(=O)N1CCC[C@H]1C(=O)N1CCC[C@H]1C(=O)NCC(=O)N[C@@H](Cc1ccc(O)cc1)C(=O)[O-].[K+] [Compound I-2] (Palmitoyl-PPGY-OH)
solubility kinetic [1]: 166000 to 200000 µg/mL

CCCCCCCCCCCCCCCC(=O)N1CCC[C@H]1C(=O)N1CCC[C@H]1C(=O)NCC(=O)N[C@@H](Cc1ccc(O)cc1)C(=O)O [Compound I-1-Acid] (Palmitoyl-PPGY-OH)
treating inflammatory bowel diseases, multiple sclerosis, and septicemia [2]: effective | solubility [3]: < 2 µg/mL | solubility ([4]; 1,4-Dioxane, room temperature): < 1000 µg/mL | solubility ([4]; 1-butanol, room temperature): < 1000 µg/mL | solubility ([4]; 2-Methyl Tetrahydrofuran, room temperature): < 1000 µg/mL | solubility ([4]; ACN—H2O (1:1), room temperature): < 1000 µg/mL | solubility ([4]; Acetone-H2O (1:2), room temperature): < 1000 µg/mL | solubility ([4]; Acetone, room temperature): < 1000 µg/mL | solubility ([4]; Acetonitrile, room temperature): < 1000 µg/mL | solubility ([4]; Cyclohexane, room temperature): < 1000 µg/mL | solubility ([4]; EtOH—H2O (1:1), room temperature): < 1000 µg/mL | solubility ([4]; EtOH—H2O (3:1), room temperature): < 1000 µg/mL | solubility ([4]; Ethanol, room temperature): < 1000 µg/mL | solubility ([4]; Ethyl acetate, room temperature): < 1000 µg/mL | solubility ([4]; Heptane, room temperature): < 1000 µg/mL | solubility ([4]; Isopropyl acetate, room temperature): < 1000 µg/mL | solubility ([4]; Isopropyl alcohol, room temperature): < 1000 µg/mL | solubility ([4]; MeOH—H2O (1:1), room temperature): < 1000 µg/mL | solubility ([4]; MeOH—H2O (3:1), room temperature): < 1000 µg/mL | solubility ([4]; Methyl ethyl ketone, room temperature): < 1000 µg/mL | solubility ([4]; Methyl isobutyl ketone, room temperature): < 1000 µg/mL | solubility ([4]; Methyl t-butyl ether, room temperature): < 1000 µg/mL | solubility ([4]; N-methyl pyrrolidone, room temperature): 1000 to 5000 µg/mL (≈ 1490 to 7450 µM) | solubility ([4]; Tetrahydrofuran, room temperature): < 1000 µg/mL | solubility ([4]; Toluene, room temperature): < 1000 µg/mL | solubility ([4]; Water, room temperature): < 1000 µg/mL | solubility ([4]; most organic solvents and water, ambient laboratory temperature): < 1000 µg/mL

CCCCCCCCCCCCCCCC(=O)N1CCC[C@H]1C(=O)N1CCC[C@H]1C(=O)NCC(=O)N[C@@H](Cc1ccc(O)cc1)C(=O)[O-].[Na+] [Compound I-1, sodium palmitoyl-L-prolyl-L-prolylglycyl-L-tyrosinate] (Palmitoyl-PPGY-OH)
solubility at 24 h ([5]; water with Cremophor RH 40 1% (w/v), HPLC): 231000 µg/mL | solubility at 24 h ([5]; water with Cremophor RH 40 10% (w/v), HPLC): 209000 µg/mL | solubility at 24 h ([5]; water with Meglumine 1% (w/v), HPLC): 190000 µg/mL | solubility at 24 h ([5]; water with Meglumine 10% (w/v)): > 270000 µg/mL | solubility at 24 h ([5]; water with TWEEN 80 1% (w/v), HPLC): 215000 µg/mL | solubility at 24 h ([5]; water with TWEEN 80 10% (w/v), HPLC): 198000 µg/mL | solubility ([6]; water with HPMC E3 5% (w/v)): < 250000 µg/mL | solubility ([6]; water with HPβCD 5% (w/v)): < 250000 µg/mL | solubility ([6]; water with Meglumine 2% (w/v)): > 250000 µg/mL | solubility ([6]; water with Meglumine 5% (w/v)): > 250000 µg/mL | solubility ([6]; water with Meglumine:Cremophor RH 40 (1:1, w/w) 10% (w/v)): > 250000 µg/mL | stable for (storage time) [7]: ≥ 6 months | physical stability of solution ([8]; 200 mg/mL in water with 3%, 4%, or 5% meglumine, stored at 25° C., 13 days): good physical stability | physical stability of solution ([8]; stored at 5° C., 5 mg/mL solution formulation with meglumine (2-5%)): not physically stable | Appearance: precipitation after (storage time) ([8]; 2%, 200 mg/mL): Precipitation after 2 days | Appearance: precipitation after (storage time) ([8]; 2%, 250 mg/mL): Precipitation after 1 day | Appearance: no precipitation until (storage time) ([8]; 3%, 200 mg/mL): ≥ 3 weeks | Appearance: no precipitation until (storage time) ([8]; 4%, 200 mg/mL): ≥ 3 weeks | Appearance: no precipitation until (storage time) ([8]; 5%, 200 mg/mL): ≥ 3 weeks | Appearance: precipitation after (storage time) ([8]; 5%, 250 mg/mL): Precipitation after 5 days | Appearance: precipitation after (storage time) ([8]; 5%, 300 mg/mL): Precipitation after 3 days | total colitis scores [9]: statistically significant improvement | solubility kinetic ([10]; water, 25° C.): ~200000 µg/mL

CCCCCCCCCCCCCCCC(=O)N1CCC[C@H]1C(=O)N1CCC[C@H]1C(=O)NCC(=O)N[C@@H](Cc1ccc(O)cc1)C(=O)[O-].[K+] [Form A2] (Palmitoyl-PPGY-OH)
hygroscopicity (DVS) [11]: hygroscopic | water absorption (DVS isotherm) [11]: about 8% | crystalline stability on storage [12]: stable

CCCCCCCCCCCCCCCC(=O)N1CCC[C@H]1C(=O)N1CCC[C@H]1C(=O)NCC(=O)N[C@@H](Cc1ccc(O)cc1)C(=O)[O-].[K+] [Compound I-2 (amorphous)] (Palmitoyl-PPGY-OH)
solubility ([13]; 1,4-Dioxane): < 1000 µg/mL | solubility ([13]; 1-butanol): 1000 to 5000 µg/mL | solubility ([13]; 2-Methyl Tetrahydrofuran): < 1000 µg/mL | solubility ([13]; Acetone): < 1000 µg/mL | solubility ([13]; Acetone: H2O (97:3)): < 1000 µg/mL | solubility ([13]; Acetonitrile): < 1000 µg/mL | solubility ([13]; Acetonitrile:H2O (95:5)): < 1000 µg/mL | solubility ([13]; Cyclohexane): < 1000 µg/mL | solubility ([13]; DMF): 50000 to 100000 µg/mL | solubility ([13]; DMSO): 50000 to 100000 µg/mL | solubility ([13]; Ethanol): 50000 to 100000 µg/mL | solubility ([13]; Ethanol:H2O (90:10)): 25000 to 50000 µg/mL | solubility ([13]; Ethanol:H2O (95:5)): 25000 to 50000 µg/mL | solubility ([13]; Ethyl acetate): < 1000 µg/mL | solubility ([13]; Heptane): < 1000 µg/mL | solubility ([13]; Isopropyl acetate): < 1000 µg/mL | solubility ([13]; Isopropyl alcohol): 1000 to 5000 µg/mL | solubility ([13]; Methanol): > 100000 µg/mL | solubility ([13]; Methanol:H2O (90:10)): > 100000 µg/mL | solubility ([13]; Methanol:H2O (95:5)): > 100000 µg/mL | solubility ([13]; Methyl ethyl ketone): < 1000 µg/mL | solubility ([13]; Methyl isobutyl ketone): < 1000 µg/mL | solubility ([13]; Methyl t-butyl ether): < 1000 µg/mL | solubility ([13]; N-methyl pyrrolidone): 50000 to 100000 µg/mL | solubility ([13]; Tetrahydrofuran): < 1000 µg/mL | solubility ([13]; Tetrahydrofuran:H2O (95:5)): 50000 to 100000 µg/mL | solubility ([13]; Toluene): < 1000 µg/mL | solubility ([13]; Water): > 100000 µg/mL

CCCCCCCCCCCCCCCC(=O)N1CCC[C@H]1C(=O)N1CCC[C@H]1C(=O)NCC(=O)N[C@@H](Cc1ccc(O)cc1)C(=O)[O-].[Na+] [Form A] (Palmitoyl-PPGY-OH)
Final pH [10, 14]: 8.91 | Final pH [10, 15]: 8.70 | XRPD pattern (wet) ([10]; 25° C., time point 1 hour): A + D | Solubility at 25° C. ([10]; water, time point 24 hours): 208600 µg/mL

CCCCCCCCCCCCCCCC(=O)N1CCC[C@H]1C(=O)N1CCC[C@H]1C(=O)NCC(=O)N[C@@H](Cc1ccc(O)cc1)C(=O)[O-].[Na+] [Form E] (Palmitoyl-PPGY-OH)
Final pH [10, 14]: 9.08 | Final pH [10, 15]: 8.70 | XRPD pattern (wet) ([10]; 25° C., time point 1 hour): A + D | Solubility at 25° C. ([10]; water, time point 24 hours): 199400 µg/mL
